Results on 9 compounds are retold here after BindingDB's records for doi:10.1016/j.bmcl.2005.03.024 (Johnson & Johnson Pharmaceutical, 2005).

Molecules are shown by their SMILES.

This experiment has as its target Cyclin-dependent kinase/G2/mitotic-specific cyclin- 1 (Homo sapiens, UniProt P06493). Kind of experiment: Kinase Inhibition Assay. The protocol:
The enzyme was assayed with a biotinylated peptide substrate and test compounds in the presence of 10 uM ATP/[gamma-33P]ATP in a streptavidin coated FlashPlate (Perkin-Elmer, Boston, MA). Inhibition of the enzymatic activity due to the compound was measured by observing a reduced amount of 33P-gamma-ATP incorporated into the immobilized peptide relative to untreated controls. Linear regression analysis of the percent of inhibition by the test compound was used to calculate IC50 values.

Sequence of Cyclin-dependent kinase/G2/mitotic-specific cyclin- 1 (P06493 whole entry): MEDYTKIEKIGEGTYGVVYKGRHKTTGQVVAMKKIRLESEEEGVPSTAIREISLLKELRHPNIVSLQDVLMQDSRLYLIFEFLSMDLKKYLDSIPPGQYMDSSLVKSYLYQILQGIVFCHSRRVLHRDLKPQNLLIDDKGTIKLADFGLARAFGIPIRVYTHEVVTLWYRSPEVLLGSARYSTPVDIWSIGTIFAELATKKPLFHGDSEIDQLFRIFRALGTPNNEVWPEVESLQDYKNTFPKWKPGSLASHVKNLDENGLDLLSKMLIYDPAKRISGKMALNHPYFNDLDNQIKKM
Sequence of Cyclin-dependent kinase/G2/mitotic-specific cyclin- 1 (P14635 whole entry, further chain): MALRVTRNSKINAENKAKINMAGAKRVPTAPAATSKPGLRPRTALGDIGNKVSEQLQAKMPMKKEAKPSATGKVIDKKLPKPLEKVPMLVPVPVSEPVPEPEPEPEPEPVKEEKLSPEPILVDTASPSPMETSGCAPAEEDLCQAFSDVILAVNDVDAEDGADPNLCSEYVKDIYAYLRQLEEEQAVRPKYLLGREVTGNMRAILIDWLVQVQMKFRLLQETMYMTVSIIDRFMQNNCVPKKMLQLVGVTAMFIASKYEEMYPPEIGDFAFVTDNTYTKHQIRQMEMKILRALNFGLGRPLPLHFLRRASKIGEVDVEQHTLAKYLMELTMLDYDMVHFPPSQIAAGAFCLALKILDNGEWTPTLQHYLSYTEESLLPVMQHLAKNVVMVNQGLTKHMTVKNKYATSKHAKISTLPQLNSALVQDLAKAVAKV

Turning to `Nc1ccc(C(=O)c2ccco2)c(N)n1` [3-(furan-2-ylcarbonyl)pyridine-2,6-diamine], the IC50 was greater than 100 µM.

Turning to `Nc1ccc(C(=O)c2cccs2)c(N)n1` [3-(thiophen-2-ylcarbonyl)pyridine-2,6-diamine], the IC50 was greater than 100 µM.

In turn, `Nc1nc(Nc2ccc(S(=O)(=O)N(Cc3ccccc3)Cc3ccccc3)cc2)ccc1C(=O)c1c(F)cccc1F` [4-({6-amino-5-[(2,6-difluorophenyl)carbonyl]pyridin-2-yl}amino)-N,N-dibenzylbenzene-1-sulfonamide] yielded an IC50 greater than 10 µM.

`CCN(CC)S(=O)(=O)c1ccc(Nc2ccc(C(=O)c3ccccc3)c(N)n2)cc1` [4-[(6-amino-5-benzoylpyridin-2-yl)amino]-N,N-diethylbenzene-1-sulfonamide] had a 50% inhibitory concentration (IC50) greater than 100 µM.

The compound `CCN(CC)S(=O)(=O)c1ccc(Nc2ccc(C(=O)c3ccco3)c(N)n2)cc1` [4-{[6-amino-5-(furan-2-ylcarbonyl)pyridin-2-yl]amino}-N,N-diethylbenzene-1-sulfonamide] showed an IC50 greater than 100 µM.

As to `Nc1nc(Nc2ccccc2[N+](=O)[O-])ccc1C(=O)c1c(F)cccc1F` [5-[(2,6-difluorophenyl)carbonyl]-2-N-(2-nitrophenyl)pyridine-2,6-diamine], the IC50 (pH 8, 30 °C) was greater than 10 µM.

Compound `CC(=O)Nc1ccccc1Nc1ccc(C(=O)c2c(F)cccc2F)c(N)n1` [N-[2-({6-amino-5-[(2,6-difluorophenyl)carbonyl]pyridin-2-yl}amino)phenyl]acetamide] gave an IC50 (pH 8, 30 °C) greater than 100 µM.

The compound `Nc1nc(Nc2ccccc2NC(=O)c2ccccc2)ccc1C(=O)c1c(F)cccc1F` [N-[2-({6-amino-5-[(2,6-difluorophenyl)carbonyl]pyridin-2-yl}amino)phenyl]benzamide] registered an IC50 (pH 8, 30 °C) greater than 100 µM.

For `Nc1nc(Nc2ccccc2NS(=O)(=O)c2ccccc2)ccc1C(=O)c1c(F)cccc1F` [N-[2-({6-amino-5-[(2,6-difluorophenyl)carbonyl]pyridin-2-yl}amino)phenyl]benzenesulfonamide], the IC50 (pH 8, 30 °C) was greater than 100 µM.
